From ChEMBL document CHEMBL3813627, “Preventive effect of a novel diosgenin derivative on arterial and venous thrombosis in vivo” (Bioorg Med Chem Lett, 2016)
Calls of active or inactive are those of the source. The calls are words filed in the database; no cut-off is given here.

Columns and labels:
[1] = system: Mus musculus; test: Toxicity in Balb/c mouse assessed as white blood cell count at 28.8 mg/kg, ig bid for 7 days (reference value: 7.7 +/- 0.65 10^9/L); assay type: organism-based; settings: in vivo, po, 168 h
[2] = system: Mus musculus; test: Toxicity in Balb/c mouse assessed as hemoglobin count at 28.8 mg/kg, ig bid for 7 days (reference value: 143 +/- 11.9 g/L); assay type: organism-based; settings: in vivo, po, 168 h
[3] = system: Mus musculus; test: Toxicity in Balb/c mouse assessed as hematocrit at 28.8 mg/kg, ig bid for 7 days (reference value: 40.5 +/- 3.5 %); assay type: organism-based; settings: in vivo, po, 168 h
[4] = species on record: Rattus norvegicus; test: Gastric toxicity in Sprague-Dawley rat assessed as gastric mucosal damage score treated for 49 days by hematoxylin and eosin staining based microscopic analysis; assay type: organism-based, Gastric mucosa; settings: in vivo, 1176 h
[5] = species on record: Rattus norvegicus; test: Gastric toxicity in Sprague-Dawley rat assessed as angiogenesis treated for 49 days by hematoxylin and eosin staining based microscopic analysis; assay type: organism-based; settings: in vivo, 1176 h
[6] = species on record: Rattus norvegicus; test: Gastric toxicity in Sprague-Dawley rat assessed as fibrotic changes treated for 49 days by hematoxylin and eosin staining based microscopic analysis; assay type: organism-based; settings: in vivo, 1176 h
[7] = system: Rattus norvegicus; test: Anticoagulant activity in platelet-rich plasma isolated from Sprague-Dawley rat assessed as activated partial thromboplastin time at 20 mg/kg, ig bid for 7 days (reference value: 17.6 +/- 0.92 secs); assay type: functional
[8] = system: Rattus norvegicus; test: Antiplatelet activity in platelet-rich plasma isolated from Sprague-Dawley rat assessed as ADP-induced platelet aggregation at 20 mg/kg, ig bid for 7 days measured for 5 mins by light transmission aggregometry (reference value: 57.57 +/- 2.43 %); assay type: functional
[9] = system: Rattus norvegicus; test: Anticoagulant activity in platelet-rich plasma isolated from Sprague-Dawley rat assessed as prothrombin time at 20 mg/kg, ig bid for 7 days (reference value: 11.6 +/- 0.98 secs); assay type: functional
[10] = system: Rattus norvegicus; test: Anticoagulant activity in platelet-rich plasma isolated from Sprague-Dawley rat assessed as thrombin time at 20 mg/kg, ig bid for 7 days (reference value: 47.1 +/- 3.1 secs); assay type: functional
[11] = system: Rattus norvegicus; test: In vivo activation of coagulation factor8 in Sprague-Dawley rat at 20 mg/kg, ig bid for 7 days by automated coagulometry; assay type: functional, organism-based
[12] = system: Rattus norvegicus; test: In vivo activation of coagulation factor9 in Sprague-Dawley rat at 20 mg/kg, ig bid for 7 days by automated coagulometry; assay type: functional, organism-based
[13] = system: Rattus norvegicus; test: In vivo activation of coagulation factor10 in Sprague-Dawley rat at 20 mg/kg, ig bid for 7 days by automated coagulometry; assay type: functional, organism-based
[14] = system: Rattus norvegicus; test: In vivo activation of coagulation factor11 in Sprague-Dawley rat at 20 mg/kg, ig bid for 7 days by automated coagulometry; assay type: functional, organism-based
[15] = system: Rattus norvegicus; test: In vivo activation of coagulation factor12 in Sprague-Dawley rat at 20 mg/kg, ig bid for 7 days by automated coagulometry; assay type: functional, organism-based
[16] = system: Rattus norvegicus; test: Anti-thrombotic activity in Sprague-Dawley rat model of FeCl3-induced arterial thrombosis assessed as reduction in arterial thrombus length at 20 mg/kg, ig bid for 7 days by vernier caliper method; assay type: functional, organism-based
[17] = system: Rattus norvegicus; test: Anti-thrombotic activity in Sprague-Dawley rat model of FeCl3-induced arterial thrombosis assessed as reduction in arterial thrombus weight at 20 mg/kg, ig bid for 7 days; assay type: functional, organism-based
[18] = system: Rattus norvegicus; test: Anti-thrombotic activity in Sprague-Dawley rat model of FeCl3-induced venous thrombosis assessed as reduction in venous thrombus length at 46 mg/kg, ig bid for 7 days by vernier caliper method; assay type: functional, organism-based
[19] = system: Rattus norvegicus; test: Anti-thrombotic activity in Sprague-Dawley rat model of FeCl3-induced venous thrombosis assessed as reduction in venous thrombus weight at 46 mg/kg, ig bid for 7 days; assay type: functional, organism-based
[20] = system: Mus musculus; test: Toxicity in Balb/c mouse assessed as tail bleeding time at 28.8 mg/kg, ig bid for 7 days (reference value: 186 +/- 12 sec); assay type: organism-based; settings: in vivo, po
[21] = system: Mus musculus; test: Toxicity in Balb/c mouse assessed as red blood cell count at 28.8 mg/kg, ig bid for 7 days (reference value: 7.55 +/- 0.59 10^12/L); assay type: organism-based; settings: in vivo, po, 168 h
[22] = system: Mus musculus; test: Toxicity in Balb/c mouse assessed as platelet count at 28.8 mg/kg, ig bid for 7 days (reference value: 802 +/- 74 10^9/L); assay type: organism-based; settings: in vivo, po, 168 h
[23] = system: Mus musculus; test: Toxicity in Balb/c mouse assessed as white blood cell count at 92.1 mg/kg, ig bid for 7 days (reference value: 7.7 +/- 0.65 10^9/L); assay type: organism-based; settings: in vivo, po, 168 h
[24] = system: Mus musculus; test: Toxicity in Balb/c mouse assessed as hemoglobin count at 92.1 mg/kg, ig bid for 7 days (reference value: 143 +/- 11.9 g/L); assay type: organism-based; settings: in vivo, po, 168 h
[25] = system: Mus musculus; test: Toxicity in Balb/c mouse assessed as hematocrit at 92.1 mg/kg, ig bid for 7 days (reference value: 40.5 +/- 3.5 %); assay type: organism-based; settings: in vivo, po, 168 h
[26] = system: Mus musculus; test: Hepatotoxicity in Balb/c mouse assessed as changes in serum GPT level at 92.1 to 575.5 mg/kg, po administered as single dose for 7 days; assay type: toxicity, organism-based; settings: in vivo, 168 h
[27] = system: Mus musculus; test: Toxicity in Balb/c mouse assessed as mortality at 92.1 to 575.5 mg/kg, po administered as single dose for 7 days; assay type: organism-based; settings: in vivo, 168 h
[28] = system: Mus musculus; test: Hepatotoxicity in Balb/c mouse assessed as changes in serum GOT level at 92.1 to 575.5 mg/kg, po administered as single dose for 7 days; assay type: toxicity, organism-based; settings: in vivo, 168 h
[29] = system: Mus musculus; test: Hepatotoxicity in Balb/c mouse assessed as histopathological changes at 92.1 to 575.5 mg/kg, po administered as single dose for 7 days by hematoxylin and eosin staining based microscopic analysis; assay type: toxicity, organism-based; settings: in vivo, 168 h
[30] = system: Rattus norvegicus; test: Antiplatelet activity in platelet-rich plasma isolated from Sprague-Dawley rat assessed as ADP-induced platelet aggregation at 64 mg/kg, ig bid for 7 days measured for 5 mins by light transmission aggregometry (reference value: 57.57 +/- 2.43 %); assay type: functional
[31] = system: Rattus norvegicus; test: Anticoagulant activity in platelet-rich plasma isolated from Sprague-Dawley rat assessed as activated partial thromboplastin time at 64 mg/kg, ig bid for 7 days (reference value: 17.6 +/- 0.92 secs); assay type: functional
[32] = system: Rattus norvegicus; test: Antiplatelet activity in platelet-rich plasma isolated from ig dosed Sprague-Dawley rat assessed as inhibition of ADP-induced platelet aggregation administered bid for 7 days measured for 5 mins by light transmission aggregometry; assay type: functional, organism-based
[33] = system: Rattus norvegicus; test: Anticoagulant activity in platelet-rich plasma isolated from Sprague-Dawley rat assessed as prothrombin time at 64 mg/kg, ig bid for 7 days (reference value: 11.6 +/- 0.98 secs); assay type: functional
[34] = system: Rattus norvegicus; test: Anticoagulant activity in platelet-rich plasma isolated from Sprague-Dawley rat assessed as thrombin time at 64 mg/kg, ig bid for 7 days (reference value: 47.1 +/- 3.1 secs); assay type: functional
[35] = system: Rattus norvegicus; test: In vivo activation of coagulation factor8 in Sprague-Dawley rat at 64 mg/kg, ig bid for 7 days by automated coagulometry; assay type: functional, organism-based
[36] = system: Rattus norvegicus; test: In vivo activation of coagulation factor9 in Sprague-Dawley rat at 64 mg/kg, ig bid for 7 days by automated coagulometry; assay type: functional, organism-based
[37] = system: Rattus norvegicus; test: In vivo activation of coagulation factor10 in Sprague-Dawley rat at 64 mg/kg, ig bid for 7 days by automated coagulometry; assay type: functional, organism-based
[38] = system: Rattus norvegicus; test: In vivo activation of coagulation factor11 in Sprague-Dawley rat at 64 mg/kg, ig bid for 7 days by automated coagulometry; assay type: functional, organism-based
[39] = system: Rattus norvegicus; test: In vivo activation of coagulation factor12 in Sprague-Dawley rat at 64 mg/kg, ig bid for 7 days by automated coagulometry; assay type: functional, organism-based
[40] = system: Rattus norvegicus; test: Anti-thrombotic activity in Sprague-Dawley rat model of FeCl3-induced arterial thrombosis assessed as arterial thrombus length at 64 mg/kg, ig bid for 7 days by vernier caliper method (reference value: 10.5 +/- 0.83 mm); assay type: functional
[41] = system: Rattus norvegicus; test: Anti-thrombotic activity in Sprague-Dawley rat model of FeCl3-induced arterial thrombosis assessed as arterial thrombus weight at 64 mg/kg, ig bid for 7 days (reference value: 12.94 +/- 0.7 mg); assay type: functional
[42] = system: Rattus norvegicus; test: Anti-thrombotic activity in Sprague-Dawley rat model of FeCl3-induced venous thrombosis assessed as venous thrombus length at 64 mg/kg, ig bid for 7 days by vernier caliper method (reference value: 10.66 +/- 0.81 mm); assay type: functional
[43] = system: Rattus norvegicus; test: Anti-thrombotic activity in Sprague-Dawley rat model of FeCl3-induced venous thrombosis assessed as venous thrombus weight at 64 mg/kg, ig bid for 7 days (reference value: 17.1 +/- 0.69 mg); assay type: functional
[44] = system: Mus musculus; test: Toxicity in Balb/c mouse assessed as tail bleeding time at 92.1 mg/kg, ig bid for 7 days (reference value: 186 +/- 12 sec); assay type: organism-based; settings: in vivo, po
[45] = system: Mus musculus; test: Toxicity in Balb/c mouse assessed as red blood cell count at 92.1 mg/kg, ig bid for 7 days (reference value: 7.55 +/- 0.59 10^12/L); assay type: organism-based; settings: in vivo, po, 168 h
[46] = system: Mus musculus; test: Toxicity in Balb/c mouse assessed as platelet count at 92.1 mg/kg, ig bid for 7 days (reference value: 802 +/- 74 10^9/L); assay type: organism-based; settings: in vivo, po, 168 h

CC(=O)Oc1ccccc1C(=O)O [ASPIRIN]
Activity [1]: 7.84 ×10⁹ /L
Activity [2]: 150 g/L
Activity [3]: 43.8%
UI [4]: 20.66
Activity [5]: Toxic
Activity [6]: Toxic
APTT [7]: 18 s
Activity [8]: 28.85%
PT [9]: 10.5 s
TT [10]: 45.3 s
Activity [11]: inactive
Activity [12]: inactive
Activity [13]: inactive
Activity [14]: inactive
Activity [15]: inactive
Activity [16]: Active
Activity [17]: Active
Activity [18]: Active
Activity [19]: Active
Time [20]: > 900 s
Activity [21]: 7.62 ×10¹² /L
Activity [22]: 651 ×10⁹ /L

CC(=O)Oc1ccccc1C(=O)O[C@H]1CC[C@@]2(C)C(=CC[C@H]3[C@@H]4C[C@@H]5O[C@]6(CC[C@@H](C)CO6)[C@@H](C)[C@@H]5[C@@]4(C)CC[C@@H]32)C1
Activity [23]: 7.82 ×10⁹ /L
Activity [24]: 133 g/L
Activity [25]: 38.9%
Activity [26]: Non-toxic
UI [4]: 0.66
Activity [5]: Non-toxic
Activity [6]: Non-toxic
Activity [27]: Non-toxic
Activity [28]: Non-toxic
Activity [29]: Non-toxic
Activity [30]: 29.42%
APTT [31]: 22.6 s
inhibition [32]: Dose-dependent effect
PT [33]: 11.4 s
TT [34]: 46.7 s
Activity [35]: Active
Activity [36]: inactive
Activity [37]: inactive
Activity [38]: inactive
Activity [39]: inactive
Activity [40]: 5 mm
Activity [41]: 6.34 mg
Activity [42]: 5.83 mm
Activity [43]: 9.12 mg
Time [44]: 676 s
Activity [45]: 7.05 ×10¹² /L
Activity [46]: 790 ×10⁹ /L
